From patent US20060002866A1, “Method for protecting the skin from aging” (priority 2002, published 2006) come the findings set out here.

This test relates to lumican mRNA in MRC5 fibroblasts. The experiment in a line: Stimulation of the lumican mRNA content in MRC5 fibroblasts (Northern Blot). Type of test: cell-based, human. The note with it: for Mean value [mRNA lumican/36B4 mRNA]: MRC5 fibroblasts, lumican mRNA against housekeeping gene 36B4 mRNA. How it is done:
Northern Blot technique for determining the RNA messengers in cells of low molecular weight proteoglycans, such as lumican and syndecan.
The stimulation of the lumican mRNA content in MRC5 fibroblasts incubated with increasing concentrations of the growth factor IGF-1 (Insulin-like Growth Factor 1, Sigma-Aldrich) was investigated. The content of mRNA of the proteoglycan lumican in cultures of human fibroblasts—MRC5 fibroblasts—was determined by the Northern Blot method.

As for “IGF-1: growth factor IGF-1 (Insulin-like Growth Factor 1, Sigma-Aldrich)”, the “Mean value [mRNA lumican/36B4 mRNA]” value (IGF-1 0.1 ng/ml) was 1.38, the “Mean value [mRNA lumican/36B4 mRNA]” value (IGF-1 1 ng/ml) amounted to 2 and the “Mean value [mRNA lumican/36B4 mRNA]” value (IGF-1 10 ng/ml) was 3.2. In addition, under “cultures of MRC5 fibroblasts”, the “Effect on mRNA content for lumican” value was “increases the mRNA content for lumican”.
